From paper PMC8151276, “An Integrated Approach toward NanoBRET Tracers for Analysis of GPCR Ligand Engagement” (Molecules, 2021) come the findings set out here.

The target of this assay is T1, ADRA1D (Homo sapiens, UniProt P25100).
T1 construct: purchased Promega (in-house HiBiT-GPCR construct library, NanoBRET)
T1 sequence (P25100 1-572): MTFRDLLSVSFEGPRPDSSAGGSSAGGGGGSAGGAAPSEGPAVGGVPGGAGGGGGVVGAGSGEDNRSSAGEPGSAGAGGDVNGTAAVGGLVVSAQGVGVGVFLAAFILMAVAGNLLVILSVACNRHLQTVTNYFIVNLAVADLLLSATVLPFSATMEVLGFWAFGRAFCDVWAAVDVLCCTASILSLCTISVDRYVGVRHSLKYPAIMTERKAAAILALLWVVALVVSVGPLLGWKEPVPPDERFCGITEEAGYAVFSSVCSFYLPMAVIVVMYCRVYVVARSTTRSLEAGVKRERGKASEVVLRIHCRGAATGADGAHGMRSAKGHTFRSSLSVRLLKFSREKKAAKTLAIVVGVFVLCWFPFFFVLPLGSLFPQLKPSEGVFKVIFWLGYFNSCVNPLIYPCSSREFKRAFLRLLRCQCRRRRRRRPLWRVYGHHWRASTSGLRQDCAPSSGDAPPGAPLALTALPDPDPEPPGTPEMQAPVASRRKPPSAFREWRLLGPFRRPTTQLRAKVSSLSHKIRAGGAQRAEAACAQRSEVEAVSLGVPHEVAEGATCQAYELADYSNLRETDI
Briefly: NanoBRET screen HiBiT-ADRA1D in HEK293. Type of assay: binding. The method, then: Each tracer candidate was screened across the entire library of HiBiT-GPCR constructs using NanoBRET as the detection modality. As depicted in Figure 4A, the specificity of interactions was evaluated through decrease in BRET due to competitive displacement of a bound tracer by excess parental compound. Each tracer was analyzed for binding to each HiBiT-GPCR fusion in the absence and in the presence of competing parental compound. Briefly, HEK293 cells were transfected with HiBiT-GPCR constructs diluted into promoterless DNA to reduce expression and maximize translocation to the cell surface. Each tracer candidate was then screened at concentrations of 1 μM and 0.1 μM across cells expressing these fusions. Cells were treated for 1.5 h with tracer either alone or in the presence of 20 μM competing parental compound (i.e., control). BRET was measured upon addition of purified LgBiT and subsequent complementation with HiBiT genetically fused to a GPCR. The specificity of interactions was assessed through a decrease in BRET signal due to competitive displacement of the bound tracer. To further gauge the robustness of these interactions, the fold response over the control (i.e., BRETtracer/BRETcontrol) was calculated. We chose a 1.5-fold response, which translates to ≥7-fold signal over noise as the minimal threshold required to score an interaction as positive.
HiBiT-GPCR DNA constructs were diluted in 10 mM Tris pH 8 to a final concentration of 0.01 μg/μL, arrayed in 96-well plates and stored at −20 °C. For transfection, HEK293 cells were suspended in Opti-MEM (without phenol red) supplemented with 2% fetal bovine serum (Seradigm) and 100 units/mL penicillin–streptomycin (Gibco) at a final concentration of 220,000 cells/mL and dispensed into white 96-well plates at 90 μL/well. Subsequent transfections and screens were carried using an Agilent Bravo Automated Liquid Handling Platform. First, the 96-well HiBiT DNA arrays were diluted 25-fold in Opti-MEM (without serum or phenol red) to a final concentration of 0.0004 μg/μL and 20 μL of the diluted DNAs were transferred into new 96-well plates. Next, promoterless carrier DNA (1 μg/μL) was diluted 25-fold (0.04 μg/μL) and then dispensed into the diluted arrays at 20 μL/well. Following brief mixing, Viafect transfection reagent (Promega) diluted 16-fold into Opti-MEM was dispensed into the plates at 40 μL/well. After mixing by pipetting, plates were incubated for 10 min on the pipetting station deck. The DNA-transfection reagent complexes were then added to plates containing cells. To facilitate the screen, 10 μL of DNA-transfection reagent complexes were added in duplicates to the top 4 and bottom 4 rows, resulting in two identical 48-well arrays per plate. Plates with transfected cells were incubated for 18–20 h at 37 °C/5% CO2. A screen of each tracer across the entire library using two different concentrations requires duplicate plates of transfected cells. Depending on the number of tracers being screened, transfections can be scaled up using the same ratios. The next day, for each tracer, four 20× screening solutions in tracer dilution buffer (Promega) were prepared: two duplicates at final concentration of 20 μM and two duplicates at a final concentration of 2 μM. […] The four resulting solutions were diluted 4-fold in Opti-MEM without serum or phenol red to generate 5× solutions (5 µM and 0.5 µM tracer +/− 100 μM competing compound). To screen the library, a BioTek MultiFlo FX liquid dispenser was used to dispense 22.5 µL of tracer solution to the top 4 rows and 22.5 µL tracer + competing compound solution to the 4 bottom rows. Plates were briefly mixed on an orbital shaker and incubated for 1.5 h at room temperature. […] Plates were briefly mixed on an orbital shaker and incubated for 15 min to allow complementation.
Background: Bioluminescence resonance energy transfer reports proximity on the nanometre scale.

SMILES strings stand for the structures.

`O=C(CCc1ccc2n1[B-](F)(F)[N+]1=C(c3ccc[nH]3)C=CC1=C2)NCc1ccc(C(=O)NCCOCCC(=O)N[C@@H]2CC[C@@]3(O)[C@H]4Cc5ccc(O)c6c5[C@@]3(CCN4CC3CC3)[C@H]2O6)cc1` [Naltrexone-3-NB590]: the “NanoBRET Fold Response” value is given as 1.36 (ADRA1D, tracer 0.1μM) and 1.31 (ADRA1D, tracer 1μM).
Consider `O=C(CCOCCOCCOCCOCCNC(=O)CCc1ccc2n1[B-](F)(F)[N+]1=C(c3ccc[nH]3)C=CC1=C2)NCCCN1CCN(C2=Nc3cc(Cl)ccc3Nc3ccccc32)CC1` [Clozapine-a-2-NB590], for which the “NanoBRET Fold Response” value runs as follows: (ADRA1D, 0.1μM tracer) 1.21; (ADRA1D, 1μM tracer) 1.08.
As to `CCOC(=O)c1cc(C#N)c(N2CCC(C(=O)NS(=O)(=O)Cc3ccccc3/C=C/C(=O)NCCNC(=O)CCc3ccc4n3[B-](F)(F)[N+]3=C(c5ccc[nH]5)C=CC3=C4)CC2)nc1C` [AZD1283-1-NB590], the “NanoBRET Fold Response” value was 1.02 (ADRA1D, 0.1μM) and 1.06 (ADRA1D, 1μM).
As to `COc1ccc2[nH]c(-c3ccc(CNC(=O)CCOCCOCCOCCOCCNC(=O)CCc4ccc5n4[B-](F)(F)[N+]4=C(c6ccc[nH]6)C=CC4=C5)cc3)c(CCNC(C)=O)c2n1` [AzomelatoninICO9-2-NB590], the “NanoBRET Fold Response” value (0.1μM tracer) was determined as 0.81 and the “NanoBRET Fold Response” value (1μM tracer) stood at 0.96.
Take `CCCn1c(=O)c2[nH]c(-c3ccc(OCC(=O)NCCNC(=O)CCOCCNC(=O)c4ccc(CNC(=O)CCc5ccc6n5[B-](F)(F)[N+]5=C(c7ccc[nH]7)C=CC5=C6)cc4)cc3)nc2n(CCC)c1=O` [XAC-3-NB590]: the “NanoBRET Fold Response” value is, setting by setting: (ADRA1D, tracer 0.1μM) 1.02; (ADRA1D, tracer 1μM) 1.10.
With `COc1ccccc1N1CCN(CCCCN2C(=O)c3ccc(CNC(=O)CCOCCNC(=O)c4ccc(CNC(=O)CCc5ccc6n5[B-](F)(F)[N+]5=C(c7ccc[nH]7)C=CC5=C6)cc4)cc3C2=O)CC1` [NAN-190-3-NB590], the “NanoBRET Fold Response” value (ADRA1D, tracer 1μM) is recorded as 1.16.
With `CN(CCC=C1c2ccccc2CCc2ccccc21)C(=O)CCOCCOCCOCCOCCNC(=O)CCc1ccc2n1[B-](F)(F)[N+]1=C(c3ccc[nH]3)C=CC1=C2` [Amitriptyline-e-2-NB590], the “NanoBRET Fold Response” value (tracer at 1μM) came to 1.07.
As for `O=C(CCc1ccc2n1[B-](F)(F)[N+]1=C(c3ccc[nH]3)C=CC1=C2)NCc1ccc(C(=O)NCCOCCOCCNCC(O)COc2cccc3ccccc23)cc1` (stereo not shown) [Propranolol-3-NB590], the “NanoBRET Fold Response” value is 1.11 (ADRA1D, 0.1μM) and 1.09 (ADRA1D, 1μM).
Turning to `COc1ccc2c(n1)c(CCNC(C)=O)cn2CCNC(=O)CCc1ccc2n1[B-](F)(F)[N+]1=C(c3ccc[nH]3)C=CC1=C2` [Azamelatonin-1-NB590], the “NanoBRET Fold Response” value turned out to be 1.04 (0.1μM tracer) and 0.92 (1μM tracer).
As for `O=C(CCOCCOCCOCCOCCNC(=O)CCc1ccc2n1[B-](F)(F)[N+]1=C(c3ccc[nH]3)C=CC1=C2)NCCCN1CCN(C2=Nc3ccccc3Oc3ccc(Cl)cc32)CC1` [Loxapine-a-2-NB590], the “NanoBRET Fold Response” value is, setting by setting: (ADRA1D, tracer 0.1μM) 1.07; (ADRA1D, tracer 1μM) 1.24.
On the same counts, the results for `COc1ccccc1N1CCN(CCCCN2C(=O)c3ccc(CNC(=O)CCOCCOCCOCCOCCNC(=O)CCc4ccc5n4[B-](F)(F)[N+]4=C(c6ccc[nH]6)C=CC4=C5)cc3C2=O)CC1` [NAN-190-2-NB590] are 1.10 and 1.13.
On the same counts, the results for `CC(C)N(CC[C@H](c1ccccc1)c1cc(CCNC(=O)c2ccc(CNC(=O)CCc3ccc4n3[B-](F)(F)[N+]3=C(c5ccc[nH]5)C=CC3=C4)cc2)ccc1O)C(C)C` [Tolterodine-BZ-NB590] are 1.15 and 1.05.
On the same counts, the results for `O=C(CCc1ccc2n1[B-](F)(F)[N+]1=C(c3ccc[nH]3)C=CC1=C2)NCCOCCOCCNC(=O)OCCOCCN1CCN(C2=Nc3ccccc3Sc3ccccc32)CC1` [Quetiapine-a-2-NB590] are 1.13 and 1.06.
In the case of `CC(C)N(CC[C@H](c1ccccc1)c1cc(CCNC(=O)CCOCCOCCOCCOCCNC(=O)CCc2ccc3n2[B-](F)(F)[N+]2=C(c4ccc[nH]4)C=CC2=C3)ccc1O)C(C)C` [Tolterodine-2-NB590], the “NanoBRET Fold Response” value reads like this: (ADRA1D, tracer 0.1μM) 0.95; (ADRA1D, tracer 1μM) 1.00.
As for `CN(C)CCC=C1c2ccccc2CCc2ccc(C(=O)NCCNC(=O)CCOCCOCCOCCOCCNC(=O)CCc3ccc4n3[B-](F)(F)[N+]3=C(c5ccc[nH]5)C=CC3=C4)cc21` [Amitriptyline-a-2-NB590], the “NanoBRET Fold Response” value by setting is: (tracer at 0.1μM) 1.08; (tracer at 1μM) 1.11.
As to `Cc1cc2c(s1)Nc1ccccc1N=C2N1CCN(CCCNC(=O)CCOCCOCCOCCOCCNC(=O)CCc2ccc3n2[B-](F)(F)[N+]2=C(c4ccc[nH]4)C=CC2=C3)CC1` [Olanzapine-a-2-NB590], under “ADRA1D, tracer 1μM”, the “NanoBRET Fold Response” value worked out at 1.06.
Regarding `N#CN=C(NCCCOc1cccc(CN2CCCCC2)c1)NCCNC(=O)CCOCCOCCOCCOCCNC(=O)CCc1ccc2n1[B-](F)(F)[N+]1=C(c3ccc[nH]3)C=CC1=C2` [Aminopotentidine-2-NB590], the “NanoBRET Fold Response” value (ADRA1D, tracer 0.1μM) is listed as 0.97.
Turning to `Cc1nc2n(c(=O)c1CCN1CCC(c3noc4cc(F)ccc34)CC1)CCCC2OC(=O)NCCOCCOCCOCCOCCNC(=O)CCc1ccc2n1[B-](F)(F)[N+]1=C(c3ccc[nH]3)C=CC1=C2` (stereo not shown) [Risperidone-2-NB590], the “NanoBRET Fold Response” value (ADRA1D, tracer 0.1μM) stood at 1.27 and the “NanoBRET Fold Response” value (ADRA1D, tracer 1μM) is listed as 1.16.
In the case of `CN(C)CCC=C1c2ccccc2CCc2ccc(C(=O)NCCNC(=O)CCOCCOCCOCCOCCNC(=O)CCc3ccc4n3[B-](F)(F)[N+]3=C(c5ccc[nH]5)C=CC3=C4)cc21` [Amitriptyline-b-2-NB590], the “NanoBRET Fold Response” value by setting is: (tracer at 0.1μM, listed as amitriptyline-b-2-NB590) 1.05; (tracer at 1μM, listed as amitriptyline-b-2-NB590) 1.07.
